Test results as given in patent publication US20050101673A1, “Use of orally available prostacyclin derivatives for the production of a pharmaceutical agent for treating diseases that are associated with bone marrow edemas” (Schering AG, priority 2002, published 2005).

Key:
osteonecrosis = details: five-day intravenous infusion; cited from earlier work
[1] = test system: patients with osteonecrosis or osteoarthritis of the knee; experiment: Random, double-blind comparison study of oral iloprost versus Tramadol; assay type: in vivo, human
Description: To confirm the action of oral iloprost on the bone marrow edema and the pain, a random, double-blind comparison study was performed on the opiate Tramadol® in 41 patients with osteonecrosis or osteoarthritis of the knee in the period from March 2001 to November 2002 according to the GCP guidelines.
Patients of both sexes with resting pain because of an osteonecrosis or osteoarthritis were included in the study if the following criteria were met: • Age between 19 and 60 years, • Bone marrow edema found by means of MRT according to specified criteria.
The treatment was carried out either with iloprost capsules or with outwardly indistinguishable Tramadol capsules that were packaged and characterized according to valid GLP rules. Each capsule contained either 50 μg of iloprost or 50 mg of Tramadol®.
During the first three days of treatment, the study medication was administered in a dosage of 3×1 capsules during the day, which starting on day 4 could be increased individually to increase the success of the therapy (alleviation of pain) up to a maximum dose of 3×2 capsules during the day. In the case of poor tolerance, the dosage could always be reduced to a minimum dose of 2×1 capsules during the day.
The treatment period was one month, followed by a follow-up observation period of two months during which no treatment was given. Previously administered pain-relieving medications should be discontinued before the beginning of the study.
The clinical action of the treatment was determined based on the following parameters: • Evaluation of the intensity of the resting pain and the activity-related pain by the patient based on a 100 mm scale, whereby 0 means “no pain,” and 100 means “intolerable pain.” • Evaluation of the functional condition of the knee by means of Larson scores. • Evaluation of the bone marrow edema by means of MRT.

[2] = test system: patients with painful bone marrow edema; experiment: 28-day treatment of patients with painful bone marrow edema (summary statements); assay type: in vivo, human; details: 28-day oral treatment; for pain and articulation: follow-up two months after end of treatment
Text: Treatment with orally available prostacyclin derivatives, especially with cyclodextrin clathrates of the prostacyclin derivatives of formula I, thus represents a novel therapy that not only suppresses the symptoms, i.e., the pain, but combats the causes of osteonecrosis and osteoarthritis and for the first time can also be clinical, studied independently.
The β-cyclodextrin clathrate of iloprost, (5- {(1S,5S,6R,7R)-7-hydroxy-6-[(E)-(3R,4RS)-3-hydroxy-4-methyl-oct-1-en-6-inyl]-bicyclo[3.3.0]octane-3-ylidene}pentanoic acid)-β-cyclodextrin clathrate, is especially suitable.

[3] = after 28 days of treatment, persists 2 months without therapy
[4] = listed as iloprost β-cyclodextrin clathrate
[5] = listed as β-cyclodextrin clathrate of iloprost

SMILES: CC#CCC(C)[C@H](O)/C=C/[C@@H]1[C@H]2C/C(=C/CCCC(=O)O)C[C@H]2C[C@H]1O.NC(CO)(CO)CO (some centres unmarked) [Ilomedin®, iloprost-trometamol]
- pain in osteonecrosis (osteonecrosis): alleviation of pain in osteonecrosis can be achieved

SMILES: COc1cccc(C2(O)CCCCC2CN(C)C)c1 (centres unmarked) [Tramadol®, reference compound]
- activity-related pain, 100 mm visual analog scale [1, 3]: considerable reduction in pain
- resting pain, 100 mm visual analog scale [1, 3]: Almost complete freedom from pain
- knee activity score according to Larson (maximum score 100) ([1]; improvement persists 2 months without therapy): pronounced increase
- patients with complete degeneration of the bone marrow edema in at least one affected bone ([1]; one month treatment, MRT): 19%

SMILES: CC#CCC(C)[C@H](O)/C=C/[C@@H]1[C@H]2C/C(=C/CCCC(=O)O)C[C@H]2C[C@H]1O (stereo partly drawn) [oral iloprost, (5-{(1S,5S,6R,7R)-7-hydroxy-6-[(E)-(3R,4RS)-3-hydroxy-4-methyl-oct-1-en-6-inyl]-bicyclo[3.3.0]octane-3-ylidene}pentanoic acid)-β-cyclodextrin clathrate]
- pain and articulation [2, 4]: alleviation of pain and the improved articulation could be observed even two months after the end of treatment
- pain and articulation [2, 5]: significant improvement of the pain
- bone marrow edema [2, 4]: reduced not only the bone marrow edema
- structural integrity of the bone, necrotic areas and lesions [2, 4]: restored the structural integrity
- bone marrow edema [2, 5]: significant reduction of the bone marrow edema
- structural integrity of the bone, necrotic areas and lesions [2, 5]: healing of necroses
